Assay results: publication PMC12030062, “From In Vitro Cytotoxicity to In Vivo Zebrafish Assays: A Study on 3,3-Dichloro β-, γ- and δ-Lactams and Their Biological Activity Profiles” (Pharmaceuticals, 2025)

Test system: Zebrafish embryos
Format: in vivo
Conditions: 74 hpf after 2-h washout; all tested concentrations up to 3.4 µg/mL
Description: Additionally, at 74 hpf, following a 2-h washout period, the response to a tactile stimulus or touch-evoked response, also known as a TER, was evaluated in embryos. This assay requires the embryos to have proper neuromuscular function. […] Further studies might be needed to elucidate the specific mechanisms by which the compound affects neurodevelopment or motor function and to determine whether these effects translate to other organisms. These findings are consistent with the broader body of research on anticancer agents, highlighting the importance of neurotoxicity evaluation in drug development and reinforcing the need for ongoing research to address these concerns. The videos and figures related to this part of the work are available in the Supplementary Materials.
• Zebrafish egg production and exposure The study was conducted in accordance with the local legislation and institutional requirements, according to the Generalitat de Catalunya Decree 53/2013, which regulates the use of animals for experimental and other scientific purposes. […] At the end of the test, dysmorphogenesis was evaluated in the live embryos only. The average lethality and dysmorphogenesis were calculated for 10 embryos per concentration, followed by averaging the results of at least three independent experiments. […]

For CC(C)(C)N1C(=O)C(Cl)(Cl)C1c1ccccc1 (stereo not shown) [Compound 1], the “touch-evoked response (TER), swimming distance” value was “significant neurodevelopmental adverse effect”.
